In PubChem BioAssay AID624254 (Broad Institute, 2012):
The source made the active and inactive calls. How the calls were made is not given here.

Test: Quorum luxo inducers, light production, v cholerae bh1651 luxod47e, confirmatory dose response (AID 624254)
Details: V. cholerae BH1651 luxOD47E, luciferase light induction, 6 h; at 50 µM (top of the series)

Compound | activation (light increase)
CCOc1ccc(Nc2nc3c(c(=O)[nH]2)CCCC3)cc1 | inactive
CCCCN1C(=O)C(O)(CC(=O)c2ccccn2)c2ccccc21 (stereo unspecified) | inactive
CCN(CC(=O)Nc1ccccc1C(F)(F)F)C(=O)CN1C(=O)NC(C)(c2ccc3ccccc3c2)C1=O (stereo unspecified) | inactive
COc1ccccc1NC(=O)COC(=O)c1cc(C)oc1C | inactive
Cc1ccc(C(=O)OCC(=O)Nc2ccccc2)cc1NC(=O)c1ccco1 | inactive
c1ccc(-c2ccc(CN3Cc4ccccc4-n4nncc4C3)cc2)cc1 | inactive
Cc1ccc(NS(=O)(=O)c2cn(C)cn2)cc1 | inactive
CC(C)c1ccc(OCC(=O)NC2CCCC2)cc1 | inactive
c1cn2cc(CN3CCOCC3)nc2s1 | inactive
CCCCNC(=O)COC(=O)c1ccc(N(C)C)cc1 | inactive
Cc1ccc(S(=O)(=O)Nc2ccccc2F)cc1C(=O)NCCCN1CCCC1=O | inactive
CCc1cccc(C)c1N(C(=O)Cn1c(CO)nc2ccccc21)C(C)COC (stereo unspecified) | inactive
O=C(Nc1nnc(-c2ccc(Br)cc2)o1)c1cccc(N2C(=O)CCC2=O)c1 | inactive
CCCn1nnnc1NCc1ccc(C(C)C)cc1 | inactive
FC(F)Oc1ccccc1NC(=S)NCc1ccco1 | inactive
COC(=O)c1cc(C(=O)OCC(=O)c2ccc3c(c2)NC(=O)CO3)cc([N+](=O)[O-])c1 | inactive
CN(C)S(=O)(=O)c1cccc(NC(=O)COC(=O)c2ccc(Br)o2)c1 | inactive
Cc1ccc(S(=O)(=O)N(C)c2ccc(OCC(=O)N3CCCCC3)cc2)cc1 | inactive
CCCn1nnnc1NCc1ccc(N(CC)CC)cc1 | inactive
COc1ccc(C(=O)COC(=O)c2cccc(-n3cnnn3)c2)c(OC)c1 | inactive
O=c1c2ccccc2nnn1CSc1nnc(-c2cccnc2)n1-c1ccccc1F | inactive
Cn1cnc(S(=O)(=O)Nc2ccccc2Cl)c1 | inactive
COc1ccc(CCNC(=O)c2nnn(-c3ccc4c(c3)OCCO4)c2N)cc1OC | inactive
CCC1Nc2ncnc(N3CCN(c4ccccc4)CC3)c2N(Cc2ccccc2)C1=O (stereo unspecified) | inactive
Cc1[nH]c2ccc3c(ncn3CCC#N)c2c1C | inactive
COC(=O)c1cc(Br)ccc1OC(=O)c1cccnc1 | inactive

Compound | activation (light increase)
COCCNC(=O)c1cnn2c1NC(c1ccco1)CC2C(F)(F)F (stereo unspecified) | inactive
COC(=O)c1c(-c2ccc(Br)cc2)noc1N | inactive
O=C(O)c1cn[nH]c1-n1cnnn1 | inactive
Cc1ccc(OCCNC(=O)c2cccc(C)c2)cc1 | inactive
Cn1c(CNc2cccc(Cl)c2)nnc1SCC(=O)OC1CCCCC1 | inactive
Cc1ccc(-c2cc(C(=O)N3N=C(C(F)F)CC3(O)C(F)F)c3ccccc3n2)cc1C (stereo unspecified) | inactive
CN(C)c1nc(N)ncc1-c1ccc(Oc2ccccc2)cc1 | inactive
CC1CCCN(C(=O)c2ccc3c(=O)n(Cc4ccc5c(c4)OCO5)c(=S)[nH]c3c2)C1 (stereo unspecified) | inactive
O=C(NCc1ccc2c(c1)OCO2)C1CCCN1C(=O)Nc1cccc(Cl)c1 (stereo unspecified) | inactive
S=C(c1ccc(N2CCOCC2)cc1)N1CCCCC1 | inactive
C[C@H](NC(=O)c1ccco1)C(=O)Nc1ccc(S(=O)(=O)N2CCCC2)cc1 | inactive
CCn1c(SCC(=O)Nc2ccc3c(c2)OCCO3)nnc1-c1ccccn1 | inactive
COc1ccc(CNC(=O)c2ccc(Cl)c(S(=O)(=O)N3CCOCC3)c2)cc1OC | inactive
Cc1cccc(-c2noc(CN(C(=O)C34CC5CC(CC(C5)C3)C4)C(C)C)n2)c1 | inactive
COc1cc(C2N(c3ccccn3)C(=O)C3CCCN32)cc(OC)c1OC (stereo unspecified) | inactive
CCCS(=O)(=O)N1CCCC(C(=O)NCCCN(C)c2ccccc2)C1 (stereo unspecified) | inactive
C[C@@H]1CN([C@@H](C)CO)C(=O)c2cccc(NC(=O)Nc3ccc4c(c3)OCO4)c2O[C@@H]1CN(C)S(=O)(=O)c1ccccc1 | inactive
O=Cc1cc(OCc2ccccc2)ccc1B(O)O | inactive
Cc1ccc(OCCCC(=O)N(C)CC(=O)Nc2ccccc2Cl)cc1 | inactive
Cc1nnc(NC(=O)c2cccc(S(=O)(=O)N3CCc4ccccc43)c2)s1 | inactive
COc1ccc(S(=O)(=O)Nc2cccc(S(=O)(=O)N3CCCC3)c2)cc1OC | inactive
Cc1cccc(-c2noc(-c3ccccc3C(=O)NCC3CCCO3)n2)c1 (stereo unspecified) | inactive
O=C(COC(=O)/C=C/c1cccc(F)c1)NC1CCCC1 | inactive
CCOC(=O)N1CCN(C(=S)NCCOC)CC1 | inactive
CCOC(=O)C1(CCOc2ccccc2)CCN(Cc2cc(OC)cc(OC)c2)CC1 | inactive
C=CCN1C(=O)c2ccc(C(=O)N(CC)CC(=O)Nc3cc(Cl)ccc3C)cc2C1=O | inactive

Compound | activation (light increase)
O=c1c2cc(N3CCOCC3)ccc2[nH]c(=S)n1CC1CCCO1 (stereo unspecified) | inactive
COC(=O)Cn1nc(-c2ccccc2)c2ccccc21 | inactive
CS(=O)(=O)NNC(=O)c1sccc1OCc1ncc(C(F)(F)F)cc1Cl | inactive
Cc1ccc(/C=C/C(=O)OCC(=O)NCCc2ccc(S(N)(=O)=O)cc2)o1 | inactive
Cc1onc(-c2ccccc2)c1C(=O)N1CCOCC1 | inactive
Cc1cc(C)c(S(C)(=O)=O)c(Oc2ccc(C(C)(C)C)cc2)n1 | inactive
O=c1ncn(-c2cccc(Cl)c2)c2ccccc12 | inactive
CCn1nnnc1NCc1ccc(N2CCCC2)cc1 | inactive
Nc1nnc(SCC(=O)Nc2ccc3c(c2)OCCO3)s1 | inactive
Cc1cccc(N2CCN(C(=O)Cn3cccc3C(=O)c3ccccc3)CC2)c1C | inactive
COc1ccc(OCC(=O)NC2CCCN(Cc3ccc(Cl)cc3)C2)cc1 (stereo unspecified) | inactive
O=c1oc2c(CN3CCOCC3)c(O)c(Cl)cc2c2c1CCC2 | inactive
CCOC(=O)C1=C(C)NC(SC)=NC1c1ccc(OC)cc1 (stereo unspecified) | inactive
Clc1ncnc2scc(-c3ccccc3)c12 | inactive
COc1ccc(N2CCN(CC(=O)Nc3c(C)cc(C)cc3C)CC2)cc1 | inactive
COc1ccc(NC(=O)CSc2ccc3c(c2)OCCO3)cc1OC | inactive
CCOC(=O)CC(=O)Nc1nnc(C(C)C)s1 | inactive
CCCCNC(=O)CN(c1cccc(Br)c1)S(C)(=O)=O | inactive
Cc1cc(C)n2cc(COc3ccc4ccccc4c3)nc2n1 | inactive
Cn1nc(-c2ccc(OCC(=O)NCC3CCCO3)cc2)c2ccccc2c1=O (stereo unspecified) | inactive
O=C(CCNC(=O)c1ccc(Cl)cc1)NCC(c1ccco1)N1CCCCC1 (stereo unspecified) | inactive
COc1ccc(C(=O)N2CCC(C(=O)c3ccc(F)cc3)CC2)cc1 | inactive
O=c1[nH]c2ccccc2n1Cc1ccc(Cl)cc1 | inactive
CC1(C)Nc2ccc(O)cc2-c2c1ssc2=S | inactive
CCN1CCN(C(=O)c2ccc(COc3ccc(Cl)cc3)o2)CC1 | inactive
CCCOC(=O)c1ccc(NC(=O)CCC(=O)OCC)cc1 | inactive

Compound | activation (light increase)
COc1ccc(-c2nnn(CC(=O)c3ccc4c(c3)OCCO4)n2)cc1OC | inactive
Cc1cc2oc(=O)cc(CN3CCC(C)CC3)c2cc1Cl | inactive
Cc1ccc(OCC(=O)NC2CCS(=O)(=O)C2)c([N+](=O)[O-])n1 (stereo unspecified) | inactive
CCOc1ccc(/C(O)=C2/C(=O)C(=O)N(CCOCCO)C2c2ccccn2)cc1 (stereo unspecified) | inactive
CC1CN(C(=O)COC(=O)c2cccc(NS(=O)(=O)c3ccccc3)c2)CC(C)O1 (stereo unspecified) | inactive
O=C(NCCOc1ccc(Cl)cc1)c1ccco1 | inactive
OCCn1c(SC2CCCCC2)nc2ccccc21 | inactive
CCOC(=O)c1c(NC(=S)Nc2ccc(Cl)cc2)sc(C)c1C | inactive
O=c1c2ccccc2nnn1CSc1nnc2ccccn12 | inactive
Cc1cccc(N2CCN(C(=O)C34CC5CC(CC(C5)C3)C4)CC2)c1C | inactive
Cc1ccc(N(C(C)C(=O)N2CCCCC2)S(C)(=O)=O)cc1C (stereo unspecified) | inactive
CC(C)[C@H](NC(=O)c1ccccc1F)C(=O)OCC(=O)NC1CC1 | inactive
O=C(COC(=O)c1ccc(Cl)nc1)Nc1ccc2ccccc2c1 | inactive
CCC(=O)NCCc1nc(-c2ccccc2)no1 | inactive
Cc1cc(C)cc(OC(=O)c2cccnc2)c1 | inactive
O=C(c1cc2cc(Cl)ccc2oc1=O)N1CCCC1 | inactive
CC(C)N1CCc2c(sc(NC(=O)c3ccc4ccccc4c3)c2C(N)=O)C1 | inactive
CC(C)(C)c1ccc(C(=O)OCC(=O)NC2CC2)cc1 | inactive
COc1ccccc1N1CCN(CCCOc2ccc(F)cc2)CC1 | inactive
CC(=O)c1c(N2CCC(C(N)=O)CC2)nc(=S)n(-c2ccccc2)c1C | inactive
CCc1ccc(-c2ccc(C(=O)O)n2CC)cc1 | inactive
CCOC(=O)c1c(-c2ccccc2)csc1NC(=O)c1nn(CC)cc1Br | inactive
CC(C)NC(=O)c1ccc(-c2cccc(C(F)(F)F)c2)o1 | inactive
